Key:
Type in all cases: in vivo, swine
[1] = tested on: mature postpartum sows; experiment: Intravulvar deslorelin at estrus detection in mature postpartum sows, AI breeding; details: live piglets born per litter, treated versus control
Protocol: Sows were assigned randomly in blocks of two to either control or to be injected intravulvar with 50 mcg of deslorelin in SAIB at the time of estrus detection for sows first detected in estrus in the a.m. and 12 hours later for those first detected in estrus in the p.m. Treated animals were bred AI upon detected estrus and again 24 hours later if still in estrus. Controls received a saline injection on first detected estrus behavior estrus detection and were bred according to the farm's normal procedures.

[2] = tested on: postpartum sows; experiment: Single timed deslorelin injection 96 h post-weaning, single timed insemination without estrus detection; details: 50 mcg deslorelin in SAIB 96 h post-weaning
Protocol: Approximately 170 postpartum sows were randomly divided into two equal groups comprised of controls and treated. Following weaning, the controls were detected for estrus and bred following the normal standard operating procedures for the farms on which they resided. The treated sows received a 50 mcg dose of deslorelin in SAIB at 96 hours post-weaning and were bred with a single insemination 28+/−2 hours later with no regard to estrus detection. The sows were examined for pregnancy by ultrasound at 21 days and slaughtered around 28 days post breeding. The entire reproductive tract was removed and corpora lutea and embryos were counted.

[3] = tested on: postpartum sows; experiment: Litter size after deslorelin treatment in sows at three farm sites; details: Tables 3-5, three farm sites, regardless of estrus detection
Excerpt: Postpartum sows were randomly distributed into three different groups comprised of Controls, Treatment 1, and Treatment 2, with the exception of Site 3, which was divided into two groups, Control and Treatment 2. Control sows were detected for estrus following weaning, and bred following the normal standard operating procedures for the farms on which they resided. Treatment 1 sows were detected for estrus following weaning, and received a 50 mcg dose of deslorelin in the morning when standing and were bred by AI 4 hours later and again at 24+/−2 hours later. Treatment 2 sows received a 50 mcg dose of deslorelin in SAIB at 96 or 120 hours post-weaning and were bred with a single insemination 28+/−2 hours later with no regard to estrus detection.

## CCNC(=O)[C@@H]1CCCN1C(=O)[C@H](CCCN=C(N)N)NC(=O)[C@H](CC(C)C)NC(=O)[C@@H](Cc1c[nH]c2ccccc12)NC(=O)[C@H](Cc1ccc(O)cc1)NC(=O)[C@H](CO)NC(=O)[C@H](Cc1c[nH]c2ccccc12)NC(=O)[C@H](Cc1cnc[nH]1)NC(=O)[C@@H]1CCC(=O)N1 [Deslorelin, deslorelin]
[1]
  Live piglet number, Deslorelin versus Saline sows (greater by): Live piglet number 0.6> in Deslorelin versus Saline sows.
[2]; single AI 28+/-2 h later, no estrus detection
  Pregnancy Rate: 71%
[2]; slaughter around 28 days post breeding
  Embryo Survival: 64%
[2]; of 84 in group, single AI 28+/-2 h later, no estrus detection
  Sows Pregnant: 60
[3]
  litter sizes (in words): normal litter sizes

From US20070173450A1, “PROCESS FOR THE SYNCHRONIZATION OF OVULATION FOR TIMED BREEDING WITHOUT HEAT DETECTION” (priority 2003, published 2007)
